Test results as given in patent US20230213511A1, “METHOD FOR EVALUATING ALLERGEN INACTIVATORS AND KIT FOR EVALUATING ALLERGEN INACTIVATORS” (SCHOOL CORPORATION, AZABU VETERINARY MEDICINE EDUCATIONAL …, priority 2020, published 2023).

Legend:
[1] = target: T1, purified mite allergens "Der f1" (Dermatophagoides farinae, UniProt P16311); assay: Immunostaining of purified mite allergens supported on a PVDF membrane after treatment using the test drug; type: biochemical; settings: two hours at normal temperature, vs PBS (−); for properties enabling recognition by the specific antibodies (anti-Der f1 monoclonal antibodies), immunostaining: test example 3, 30 v/v % hydrogen peroxide water, 10 mM hydrochloric acid (pH 2); for capacity for recognition by the specific antibodies (anti-Der f1 monoclonal antibodies), immunostaining: 5 ppm Bi-jia water, 5 ppm sodium hypochlorite, 6M guanidine
T1 construct: purchased ITEA Inc
T1 sequence (P16311 99-321): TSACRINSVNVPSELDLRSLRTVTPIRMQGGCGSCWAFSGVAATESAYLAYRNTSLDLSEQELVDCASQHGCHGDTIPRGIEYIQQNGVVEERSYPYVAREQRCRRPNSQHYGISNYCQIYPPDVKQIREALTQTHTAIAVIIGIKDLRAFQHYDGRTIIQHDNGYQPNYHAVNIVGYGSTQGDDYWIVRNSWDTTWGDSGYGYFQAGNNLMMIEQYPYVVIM
Experimental: (3-1. PVDF membrane) • A PVDF membrane (pore diameter: 0.45 μm) was immersed in methanol to be made hydrophilic, after which a prescribed quantity of allergens was blotted onto the PVDF membrane in a dot formation (0-100 ng/dot).
(4. Treatment using test drug) • The allergen-supporting membrane was washed three times using PBS (−). • The membrane was placed in a plastic container and immersed in 5 mL of a solution containing the test drug. • The membrane was allowed to stand for two hours at normal temperature. • The solution of the test drug was discarded, and the membrane was washed three times using PBS (−). • Protein staining or immunostaining was carried out.
(6. Immunostaining) • The allergen-supporting membrane (after “4. Treatment using test drug” described above) was immersed in 1 w/v % gelatin-containing PBS and was blocked for ten minutes at 37° C. • The blocking liquid was discarded, and the membrane was washed three times using PBS (−). • Primary antibodies were diluted using 1 w/v % BSA-containing PBST (0.02 v/v % Tween-20) so as to reach a concentration of 1 μg/mL, 2 mL of the primary antibodies was added to the blocked membrane, and a reaction was carried out for 30 minutes at normal temperature while the membrane was shaken. • A primary antibody reaction solution was discarded, and the membrane was washed three times using PBST. • HRP-labeled secondary antibodies (product name “HRP-Goat anti-Mouse IgG,” made by Zymed Laboratories) were diluted using 1 w/v % BSA-containing PBST (0.02 v/v % Tween-20) so as to reach a concentration of 3 μg/mL, 2 mL of the secondary antibodies was added to the membrane reacted with the primary antibodies, and a reaction was carried out for 30 minutes at normal temperature while the membrane was shaken. • A secondary antibody reaction solution was discarded, and the membrane was washed four times using PBST. • An amount of 1 mL of a coloring reagent solution (product name “Ez West Blue,” made by ATTO Co., Ltd.) was added to the membrane reacted with the secondary antibodies, and a reaction was carried out for ten minutes. • The membrane was washed using a large amount of distilled water, and the reaction was stopped. • The membrane was allowed to spontaneously dry.
(§1) Specifically, purified mite allergens were dot-blotted in an amount of 0, 12.5, 25, 50, or 100 ng onto a single PVDF membrane cut into a rectangular strip to produce an allergen-supporting membrane. Two identical allergen-supporting membranes were provided in this manner. First, the two allergen-supporting membranes were treated using the same test drug, a washing treatment using PBS was furthermore carried out, and then one of the treated membranes was supplied for protein staining using the gold stain and the other of the treated membranes was supplied for immunostaining using the anti-Der f1 monoclonal antibodies.
as §1, with “4, 20,” for “12.5, 25, 50,”, “antibodies. […]” for “antibodies.”

[2] = target: T2, purified Japanese cedar pollen allergens "Cry j1" (Cryptomeria japonica, UniProt P18632); assay: Immunostaining of Cry j1 on multiscreen filter plate with PVDF filter membrane after treatment using the test drug; type: biochemical; settings: test example 9, two hours at normal temperature, 0.1% SDS, 6M guanidine, other drugs of FIG. 16, vs PBS
T2 construct: purchased ITEA Inc
T2 sequence (P18632 22-374): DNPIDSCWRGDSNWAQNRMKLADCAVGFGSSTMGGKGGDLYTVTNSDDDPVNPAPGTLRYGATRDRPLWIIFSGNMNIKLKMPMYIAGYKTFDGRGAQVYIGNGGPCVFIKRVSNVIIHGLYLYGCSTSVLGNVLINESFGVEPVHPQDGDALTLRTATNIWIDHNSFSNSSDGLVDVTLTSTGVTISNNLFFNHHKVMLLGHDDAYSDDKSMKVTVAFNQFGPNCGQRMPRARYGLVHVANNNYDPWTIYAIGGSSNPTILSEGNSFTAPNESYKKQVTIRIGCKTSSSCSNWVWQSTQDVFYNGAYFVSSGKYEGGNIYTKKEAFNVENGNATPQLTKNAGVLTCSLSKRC
Source text: […]

[3] = system: extract from the grass Phleum pratense, the weed Plantago lanceolata, or house dust containing Dermatophagoides pteronyssinus; settings: extract treated using a 1% aqueous solution of tannic acid; cited from earlier work
[4] = target: T2, purified Japanese cedar pollen allergens "Cry j1"; assay: Immunostaining of Cry j1 on multiscreen filter plate with cellulose mixed ester filter membrane after treatment using the test drug; type: biochemical; settings: test example 8, two hours at normal temperature, 5 ppm NaClO (Bi-jia water), 6M guanidine, other drugs of FIG. 15, vs PBS
Experimental: A test for evaluating allergen inactivators was conducted using, as an allergen support, a multiscreen filter plate (MultiScreen HTS HA sterile plate, Millipore, #MSHAS4510) provided with a filter membrane composed of a cellulose mixed ester (substance similar to nitrocellulose) in each well. Specifically, as per the main points of the operational procedure for the test shown in FIG. 6, a test was conducted in accordance with the following protocol.
(1. Formulation of Allergen-Supporting Membrane and Treatment Carried Out Using Test Drug) • An amount of 2 μL of purified Japanese cedar pollen allergens (product name “Cry j1”) (made by ITEA Inc.) (origin: Japanese cedar (Cryptomeria japonica)) in each stage of dilution (50, 10, 2, or 0 ng/μL) was added dropwise into each well of the multiscreen filter plate and was allowed to spontaneously dry. • Filtration washing was carried out three times using 200 μL of PBS. • An amount of 200 μL of the drugs being examined (the various drugs being examined, and concentrations thereof, shown in FIG. 15; PBS as a control) was added, and the multiscreen filter plate was allowed to stand for two hours at normal temperature. • The drugs being examined were removed through pipetting. • Filtration washing was carried out three times using 200 μL of PBS. • To immunostaining or gold staining […]

[5] = PVDF membrane, 0, 4, 20, 100 ng/dot
[6] = test example 2, PVDF membrane, 0, 4, 20, 100 ng/dot, 0.1 w/v % SDS

| SMILES | properties enabling recognition by the specific antibodies (anti-Der f1 monoclonal antibodies), immunostaining [1, 5] | capacity for recognition by the specific antibodies (anti-Der f1 monoclonal antibodies), immunostaining [1, 6] | capacity for recognition by the specific antibodies (anti-Cry j1 monoclonal antibodies), immunostaining [2] | further results |
| --- | --- | --- | --- | --- |
| Cl [hydrochloric acid] | weakened | – | – | – |
| OO [hydrogen peroxide water, hydrogen peroxide] | weakened | – | – | – |
| CCCCCCCCCCCCOS(=O)(=O)[O-].[Na+] [SDS] | – | notably weakened | notably weakened | – |
| O=C(OC[C@H]1O[C@@H](OC(=O)c2cc(O)c(O)c(OC(=O)c3cc(O)c(O)c(O)c3)c2)[C@H](OC(=O)c2cc(O)c(O)c(OC(=O)c3cc(O)c(O)c(O)c3)c2)[C@@H](OC(=O)c2cc(O)c(O)c(OC(=O)c3cc(O)c(O)c(O)c3)c2)[C@@H]1OC(=O)c1cc(O)c(O)c(OC(=O)c2cc(O)c(O)c(O)c2)c1)c1cc(O)c(O)c(OC(=O)c2cc(O)c(O)c(O)c2)c1 [tannic acid] | – | – | – | allergenicity in a cutaneous reaction test [3]: allergenicity can be mitigated |
| N=C(N)N [guanidine] | – | – | notably weakened | capacity for recognition by the specific antibodies (anti-Cry j1 monoclonal antibodies), immunostaining [4]: notably weakened |
| OCl [sodium hypochlorite] | – | notably weakened | – | capacity for recognition by the specific antibodies (anti-Der f1 monoclonal antibodies), immunostaining ([1]; test example 1, PVDF membrane, 0-100 ng/dot): notably weakened |
